According to PMC12591484 (PLOS One, 2025):
Read-outs that look alike come from different tables or passages of the source.

Experiments:
[1] = biological target: T1, α1β3γ2L246C GABAA receptors (Homo sapiens, UniProt P14867+P18507+P28472, L285C); parameters: key: +: Mutant-function studies are deemed positive when bulky mutations (mostly tryptophans) at the site significantly reduce positive modulation by anesthetics; -: Negative results are indicated by “–“ symbols; conditions: previously reported; cited from earlier work
T1 construct: expressed in transfected cells; host or cells: Xenopus oocytes injected with capped mRNAs mixed 1α:1β:5γ
T1 sequence (P14867 28-456, stated change not applied): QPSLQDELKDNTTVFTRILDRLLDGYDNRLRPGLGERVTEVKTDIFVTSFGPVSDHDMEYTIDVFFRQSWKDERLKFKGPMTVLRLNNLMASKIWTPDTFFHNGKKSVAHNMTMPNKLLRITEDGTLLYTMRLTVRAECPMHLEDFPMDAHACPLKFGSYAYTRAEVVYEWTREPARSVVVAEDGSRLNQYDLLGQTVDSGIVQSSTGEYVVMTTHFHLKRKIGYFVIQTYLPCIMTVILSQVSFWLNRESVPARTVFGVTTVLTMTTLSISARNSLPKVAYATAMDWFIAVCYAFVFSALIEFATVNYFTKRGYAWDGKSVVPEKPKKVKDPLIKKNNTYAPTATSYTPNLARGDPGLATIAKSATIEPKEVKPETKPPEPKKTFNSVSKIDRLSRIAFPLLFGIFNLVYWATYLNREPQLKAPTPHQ
T1 sequence (P28472 26-473): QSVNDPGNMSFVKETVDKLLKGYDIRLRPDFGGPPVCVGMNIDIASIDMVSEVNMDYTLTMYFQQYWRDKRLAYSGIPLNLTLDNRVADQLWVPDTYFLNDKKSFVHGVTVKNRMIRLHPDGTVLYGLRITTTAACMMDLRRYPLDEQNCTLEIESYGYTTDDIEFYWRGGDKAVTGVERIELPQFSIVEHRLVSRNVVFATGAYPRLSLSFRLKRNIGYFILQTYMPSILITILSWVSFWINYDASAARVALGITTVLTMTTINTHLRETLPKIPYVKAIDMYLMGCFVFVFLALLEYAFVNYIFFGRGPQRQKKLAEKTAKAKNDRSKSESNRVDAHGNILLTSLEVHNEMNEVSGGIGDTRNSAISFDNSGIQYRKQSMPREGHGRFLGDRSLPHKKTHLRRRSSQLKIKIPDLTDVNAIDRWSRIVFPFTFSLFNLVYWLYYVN
T1 sequence (P18507 40-475 L285C): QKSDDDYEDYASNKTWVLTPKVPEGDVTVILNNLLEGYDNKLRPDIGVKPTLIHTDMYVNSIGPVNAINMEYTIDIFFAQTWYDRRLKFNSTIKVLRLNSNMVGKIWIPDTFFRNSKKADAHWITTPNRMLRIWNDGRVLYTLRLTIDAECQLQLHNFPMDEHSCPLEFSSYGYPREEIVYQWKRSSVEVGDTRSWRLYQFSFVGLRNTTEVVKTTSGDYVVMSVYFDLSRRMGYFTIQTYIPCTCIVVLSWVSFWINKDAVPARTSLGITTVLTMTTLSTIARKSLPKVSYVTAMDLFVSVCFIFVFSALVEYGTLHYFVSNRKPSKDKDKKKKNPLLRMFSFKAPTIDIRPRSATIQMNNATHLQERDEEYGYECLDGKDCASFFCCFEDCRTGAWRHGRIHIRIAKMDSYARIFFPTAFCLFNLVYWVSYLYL

[2] = system: α1β3γ2L GABAA receptors, substituted cysteine at α1L232 (α1– M1); parameters: key: +: Mutant-function studies are deemed positive when bulky mutations (mostly tryptophans) at the site significantly reduce positive modulation by anesthetics; -: Negative results are indicated by “–“ symbols; conditions: previously reported; cited from earlier work
[3] = system: α1β3γ2L GABAA receptors, substituted cysteine at α1L232 (α1– M1); parameters: key: +: SCAMP is Substituted Cysteine Modification and Protection and is positive when adding anesthetic to cysteine modifier significantly reduces persistent post-exposure effects due to covalent modification; -: Negative results are indicated by “–“ symbols; conditions: previously reported; cited from earlier work
[4] = biological target: T2, α1β3M286Cγ2L GABAA receptors (Homo sapiens, UniProt P14867+P18507+P28472, M311C); experiment: Drug protection from pCMBS modification (SCAMP); assay type: cell-based; conditions: β3M286C (β+); pCMBS 1 µM x 30 s; […] etomidate, 8 µM R-mTFD-MPAB or 10 µM pTFD-di-iPr-BnOH; n = 5
T2 construct: expressed in transfected cells; host or cells: Xenopus oocytes injected with capped mRNA, 1α:1β:5γ
T2 sequence (P14867 28-456): as the sequence (P14867 28-456, stated change not applied) above
T2 sequence (P28472 26-473 M311C): as the sequence (P28472 26-473) above, with M286C counted along it
T2 sequence (P18507 40-475): as the sequence (P18507 40-475 L285C) above, with C246L counted along it
Method: Experiments were performed in ND-96 buffer at room temperature (20–22°C). Oocytes were placed in a low-volume (30µl) flow chamber and impaled with borosilicate microelectrodes filled with 3M KCl (resistance 0.5–3 MΩ) and voltage-clamped at −50 mV (model OC-725C; Warner Instruments, Hamden, CT, USA). Superfusate solutions in ND-96 were delivered at 2 ml/min from glass syringe reservoirs via computer-controlled valves (VC-8; Warner Instruments), a micro-manifold (ALA-VM8; ALA Scientific Instruments, Farmingdale, NY, USA), and PTFE tubing. Currents were digitized at 200 Hz on a computer running ClampEx v8.0 software (Molecular Devices, San Jose, CA, USA). Digitized traces were filtered with a 10-Hz low-pass Bessel function, leak corrected and analyzed for peak amplitude off-line using Clampfit v8 software (Molecular Devices).
Drug protection from pCMBS modification was assessed under pCMBS exposure conditions that produced approximately half of the maximal modification ratio for each mutant receptor, and a least a value of 3. This approach balanced the magnitude of functional modification signals (smaller with less pCMBS exposure) against the challenge of using a reversibly bound ligand to competitively block an irreversible covalent cysteine-modifying reaction. […] Each oocyte was used in a single SCAMP experiment. […] Etomidate was used as a positive control for anesthetic protection in α1M236C and β3M286C mutants and as a negative control in α1S270C, α1A291C, β3L231C, γ2S301C, γ2I242C, and γ2L246C mutants. R-mTFD-MPAB was used as a positive control in α1S270C, α1A291C, β3L231C, and γ2LS301C mutants and as a negative control in α1M236C and β3M286C mutants. For each cysteine mutant and protective drug combination, five oocytes were studied.
Non-linear least squares fits and statistical analyses were performed in Prism 10.4.0. (GraphPad Software, San Diego, CA, USA). […] Protection (steric inhibition of pCMBS modification) was inferred when anesthetics produced significant reductions in modification ratios relative to control (no anesthetic) values. The statistical significance threshold was p < 0.05.

Compound	SCAMP result, γ2– (M1) L246 [1]	SCAMP result, α1– (M1) L232 [2]	SCAMP result, α1– (M1) L232 [3]	protection from pCMBS modification (significant reduction of modification ratio vs control, p < 0.05) [4]
C=CCC1(c2cccc(C3(C(F)(F)F)N=N3)c2)C(=O)NC(=O)N(C)C1=O (stereo not shown) [R-mTFD-MPAB, R-5-allyl-1-methyl-5-(m-trifluoromethyl-diazirynylphenyl) barbituric acid]	-^[9]	-^[9]	–	–
CCOC(=O)c1cncn1[C@H](C)c1ccccc1 [etomidate, R-etomidate]	–	–	+^[9]	protection was inferred
